pEC50: −log10 of the molar value. Structures can show the parent of a compound that is named as a salt.

The target of this assay is T1, Glucokinase (Homo sapiens, UniProt P35557).
T1 construct: purchased ProteinOne Inc
T1 sequence (P35557 1-465): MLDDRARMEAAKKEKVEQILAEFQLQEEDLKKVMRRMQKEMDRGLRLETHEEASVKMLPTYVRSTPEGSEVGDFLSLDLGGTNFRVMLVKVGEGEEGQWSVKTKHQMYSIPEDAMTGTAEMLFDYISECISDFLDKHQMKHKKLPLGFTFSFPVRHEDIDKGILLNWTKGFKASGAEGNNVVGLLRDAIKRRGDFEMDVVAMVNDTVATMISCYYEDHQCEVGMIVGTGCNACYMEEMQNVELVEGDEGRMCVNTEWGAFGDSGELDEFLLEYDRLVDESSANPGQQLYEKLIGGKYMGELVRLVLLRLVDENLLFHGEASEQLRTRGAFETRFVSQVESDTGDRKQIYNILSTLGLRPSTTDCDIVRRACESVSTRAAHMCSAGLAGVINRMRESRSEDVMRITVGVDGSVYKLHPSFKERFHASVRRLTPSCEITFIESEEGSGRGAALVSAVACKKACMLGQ
Put plainly: Glucokinase activation assay (NADPH absorbance at 340 nm). It is filed as biochemical. The following applies: glucokinase (ProteinOne Inc.), 5 mM D(+)-glucose, 24° C., 90 minutes. Here is the method:
The amounts of glucokinase activation were determined by measuring the levels of NADPH (the final metabolite of glucose through glucokinase-mediated phospho-rylation) and then calculating to glucokinase activities.
Glucokinase (ProteinOne Inc.) was added, in the concentration of 100 ng/uL, to a enzyme-reaction medium (25 mM HEPES pH 7, 25 mM KCL, 1 mM MgCl, 5 mM D(+)-glucose, 1 mM ATP, 1 mM NADP, 1 mM DTT, and 2.5 u/mL G6PDH). Each compound in predetermined concentrations was added to the enzyme-reaction medium and then absorbance (First Absorbance) was measured at 340 nm of wavelength. After measuring the first absorbance, each reaction mixture was incubated at 24° C. for 90 minutes and then absorbance (Second Absorbance) was re-measured at 340 nm of wavelength. Using changes between First Absorbance and Second Absorbance, glucokinase activity was calculated. In the calculation, a maximum activity of the test compound (Emax), in comparison to the control group (no treatment of compound) was determined and then EC50 was calculated using the software for statistical analysis “Prism”, based on the activity-changes according to concentrations of the test compounds.
The amounts of glucokinase activation of the compounds of Comparative Examples 1 and 2 were determined, in accordance with the same procedures as in Test Example 1.
A word on the pEC50: it is the negative decadic logarithm of the EC50, by convention in mol/L. Low readings indicate a large EC50, high ones a small EC50. “3-[2-(2-fluorophenyl)ethyl]-5-(2-methoxy-(1S)-methyl-ethoxy)-N-(pyrazin-2-yl)-benz amide [Example 107]” had a pEC50 of 6.48.

Regarding “3-{2-[3-(3-ethyl-thio-ureido)phenyl]ethyl}-5-(2-methoxy-(1S)-methyl-ethoxy)-N-(thiazol-2-yl)-benzamide [Example 131]”, the pEC50 was 6.31.

Take `COC[C@H](C)Oc1cc(/C=C/c2ccccc2Cl)cc(C(=O)Nc2ccn(C)n2)c1` (stereo in doubt) [Example 46, 3-[trans-2-(2-chlorophenyl)vinyl]-5-(2-methoxy-(1S)-methyl-ethoxy)-N-(1-methyl-1H-pyrazol-3-yl)-benzamide]: the pEC50 is 6.83.

For “3-{2-[3-(2-(thiophen-2-yl)acetylamino)phenyl]ethyl}-5-(2-methoxy-(1S)-methyl-ethoxy)-N-(thiazol-2-yl)-benzamide [Example 129]”, the pEC50 was 6.57.

With `COC[C@H](C)Oc1cc(CCc2c(F)cccc2F)cc(C(=O)Nc2ccc(C(=O)O)cn2)c1` [Example 109, 3-[2-(2,6-difluorophenyl)ethyl]-5-(2-methoxy-(1S)-methyl-ethoxy)-N-(nicotinic acid-6-yl)-benzamide], the negative logarithm of the EC50 (pEC50) is 6.68.

In turn, “3-[2-(2,3-dimethoxyphenyl)ethyl]-5-(2-methoxy-(1S)-methyl-ethoxy)-N-(1-methyl-1H-pyrazol-3-yl)-benzamide [Example 103]” had a pEC50 of 6.35.

Turning to `COC[C@H](C)Oc1cc(CCc2cccc(NC(=O)CC(=O)O)c2)cc(C(=O)Nc2nccs2)c1` [Example 147, 3-[2-(3-malonamic acid phenyl)ethyl]-5-(2-methoxy-(1S)-methyl-ethoxy)-N-(thiazol-2-yl)-benzamide], the pEC50 is 6.65.

“3-[trans-2-(4-methoxyphenyl)vinyl]-5-(2-methoxy-(1S)-methyl-ethoxy)-N-(1-methyl-1H-pyrazol-3-yl)-benzamide [Example 41]”: the pEC50 was 6.61.

In turn, `COC[C@H](C)Oc1cc(/C=C/c2cc(OC)cc(OC)c2)cc(C(=O)Nc2ccn(C)n2)c1` (stereo in doubt) [Example 40, 3-[trans-2-(3,5-dimethoxyphenyl)vinyl]-5-(2-methoxy-(1S)-methyl-ethoxy)-N-(1-methyl-1H-pyrazol-3-yl)-benzamide] showed a pEC50 of 6.76.

“3-[trans-2-(2,3,5-trifluorophenyl)vinyl]-5-(2-methoxy-(1S)-methyl-ethoxy)-N-(thiazol-2-yl)-benzamide [Example 18]” had a pEC50 of 6.90.

`Cc1ccc(/C=C/c2cc(OCC(C)C)cc(C(=O)Nc3nccs3)c2)cc1` [Example 1, 3-[trans-2-(p-tolyl)vinyl]-5-isobutoxy-N-(thiazol-2-yl)-benzamide] gave a pEC50 of 6.79.

“3-[trans-2-(4-nitrophenyl)vinyl]-5-(2-methoxy-(1S)-methyl-ethoxy)-N-(thiazol-2-yl)-benzamide [Example 15]”: the pEC50 is 6.89.

For the compound “3-[trans-2-(2,4-difluorophenyl)vinyl]-5-(2-methoxy-(1S)-methyl-ethoxy)-N-(thiazol-2-yl)-benzamide [Example 10]”, the pEC50 was 7.26.

“3-[trans-2-(3-nitrophenyl)vinyl]-5-(2-methoxy-(1S)-methyl-ethoxy)-N-(5-fluorothiazol-2-yl)-benzamide [Example 20]”: the pEC50 is 6.91.

Regarding `COC[C@H](C)Oc1cc(/C=C/c2cccc(F)c2F)cc(C(=O)Nc2ccc(C(=O)O)cn2)c1` [Example 78, 3-[trans-2-(2,3-difluorophenyl)vinyl]-5-(2-methoxy-(1S)-methyl-ethoxy)-N-(nicotinic acid-6-yl)-benzamide], the pEC50 was 6.91.

“3-[trans-2-(2,3-dimethoxyphenyl)vinyl]-5-(2-methoxy-(1S)-methyl-ethoxy)-N-(5-fluorothiazol-2-yl)-benzamide [Example 28]” gave a pEC50 of 6.93.

As to “3-[2-(4-aminophenyl)ethyl]-5-(2-methoxy-(1S)-methyl-ethoxy)-N-(thiazol-2-yl)-benzamide [Example 92]”, the pEC50 is 6.95.

In turn, `CC(C)COc1cc(/C=C/c2ccc(F)cc2)cc(C(=O)Nc2nccs2)c1` [Example 2, 3-[trans-2-(4-fluorophenyl)vinyl]-5-isobutoxy-N-(thiazol-2-yl)-benzamide] gave a pEC50 of 6.76. The pEC50 values of the last two compounds are within 0.2 log units of each other.

`COC[C@H](C)Oc1cc(CCc2cccc(NC(=O)c3ccncc3)c2)cc(C(=O)Nc2nccs2)c1` [Example 128, 3-[2-(3-isonicotinamidephenyl)ethyl]-5-(2-methoxy-(1S)-methyl-ethoxy)-N-(thiazol-2-yl)-benzamide] showed a pEC50 of 6.70.

For “3-[2-(2,3-difluorophenyl)ethyl]-5-(2-methoxy-(1S)-methyl-ethoxy)-N-(1-methyl-1H-pyrazol-3-yl)-benzamide [Example 95]”, the pEC50 was 6.38.

On to “3-{2-[4-(4-fluorobenzoylamino)phenyl]ethyl}-5-(2-methoxy-(1S)-methyl-ethoxy)-N-(t hiazol-2-yl)-benzamide [Example 139]”, for which the pEC50 is 6.43.

For the compound “3-[trans-2-(2-fluorophenyl)vinyl]-5-(2-methoxy-(1S)-methyl-ethoxy)-N-(pyrazin-2-yl)-benzamide [Example 51]”, the pEC50 is 6.62. The pEC50 values of the last two compounds are within 0.2 log units of each other.

As for “3-[trans-2-(2,5-difluorophenyl)vinyl]-5-(2-methoxy-(1S)-methyl-ethoxy)-N-(5-fluorothiazol-2-yl)-benzamide [Example 26]”, the negative-log EC50 (pEC50) was 7.33.

On to “3-[trans-2-(4-fluorophenyl)vinyl]-5-(2-methoxy-(1S)-methyl-ethoxy)-N-(5-fluorothiazol-2-yl)-benzamide [Example 23]”, for which the pEC50 is 7.39. This pEC50 and that of the compound before are within 0.2 log units of each other.

For “3-[trans-2-(3-nitrophenyl)vinyl]-5-(2-methoxy-(1S)-methyl-ethoxy)-N-(thiazol-2-yl)-benzamide [Example 14]”, the negative-log EC50 (pEC50) is 7.71.

`COC[C@H](C)Oc1cc(/C=C/c2ccccc2F)cc(C(=O)Nc2nccs2)c1` (stereo in doubt) [Example 6, 3-[trans-2-(2-fluorophenyl)vinyl]-5-(2-methoxy-(1S)-methyl-ethoxy)-N-(thiazol-2-yl)-benzamide]: the pEC50 is 7.41.

The compound “3-[2-(2,4-difluorophenyl)ethyl]-5-(2-methoxy-(1S)-methyl-ethoxy)-N-(1-methyl-1H-pyrazol-3-yl)-benzamide [Example 96]” had a pEC50 of 6.73.

In the case of `COC[C@H](C)Oc1cc(CCc2ccc(NC(=O)c3ccncc3)cc2)cc(C(=O)Nc2nccs2)c1` [Example 142, 3-[2-(4-isonicotinamidephenyl)ethyl]-5-(2-methoxy-(1S)-methyl-ethoxy)-N-(thiazol-2-yl)-benzamide], the pEC50 was 6.45.

In the case of `COC[C@H](C)Oc1cc(/C=C/c2ccccc2OC)cc(C(=O)Nc2ccc(C(=O)O)cn2)c1` [Example 73, 3-[trans-2-(2-methoxyphenyl)vinyl]-5-(2-methoxy-(1S)-methyl-ethoxy)-N-(nicotinic acid-6-yl)-benzamide], the pEC50 is 7.08. This pEC50 is 0.63 log units higher than that of the compound before.

As for “3-[2-(4-fluorophenyl)ethyl]-5-(2-methoxy-(1S)-methyl-ethoxy)-N-(1-methyl-1H-pyrazol-3-yl)-benzamide [Example 98]”, the pEC50 is 6.67.

Compound “3-[trans-2-(4-fluorophenyl)vinyl]-5-(2-methoxy-(1S)-methyl-ethoxy)-N-(pyrazin-2-yl)-benzamide [Example 52]” gave a pEC50 of 6.38. This pEC50 lies 0.29 log units lower than the previous one.

As to `COC[C@H](C)Oc1cc(/C=C/c2ccccc2[N+](=O)[O-])cc(C(=O)Nc2ccc(C(=O)OC)cn2)c1` [Example 62, 3-[trans-2-(2-nitrophenyl)vinyl]-5-(2-methoxy-(1S)-methyl-ethoxy)-N-(nicotinic acid-3-methyl ester-6-yl)-benzamide], the pEC50 is 6.97.

In turn, “3-[2-(3-chlorophenyl)ethyl]-5-(2-methoxy-(1S)-methyl-ethoxy)-N-(1-methyl-1H-pyrazol-3-yl)-benzamide [Example 102]” showed a pEC50 of 6.58.

With `COC[C@H](C)Oc1cc(CCc2ccccc2N)cc(C(=O)Nc2nccs2)c1` [Example 110, 3-[2-(2-aminophenyl)ethyl]-5-(2-methoxy-(1S)-methyl-ethoxy)-N-(thiazol-2-yl)-benzamide hydrochloride], the pEC50 was 7.17.

Turning to `CCOC(=O)Nc1ccc(CCc2cc(O[C@@H](C)COC)cc(C(=O)Nc3nccs3)c2)cc1` [Example 136, 3-{2-[4-(carbamic acid ethyl ester)phenyl]ethyl}-5-(2-methoxy-(1S)-methyl-ethoxy)-N-(thiazol-2-yl)-benzamide], the pEC50 was 6.57.

The values are drawn from patent publication US20120178765A1, “NOVEL GLUCOKINASE ACTIVATORS AND PROCESSES FOR THE PREPARATION THEREOF” (YUHAN CORPORATION, priority 2009, published 2012).
